Measurements from US20130065868A1, “ANXIOYTIC MARCGRAVIACEAE COMPOSITIONS CONTAINING BETULINIC ACID, BETULINIC ACID DERIVATIVES, AND METHODS” (UNIVERSITY OF OTTAWA, priority 2002, published 2013).
Where two headings read alike, the source gives them in different places.

What was measured:
CCKA = CCKA (Homo sapiens, UniProt P32238); assay: MDS Panlabs screen: cholecystokinin (CCK) CCKA; assay type: binding; conditions: Peptides
Method: (§1) Tests were conducted by MDS Panlabs to determine whether any of the classical neurotransmitter systems or the peptidergic systems thought to play a role in anxiety are affected by betulinic acid.

EGF = EGF (Homo sapiens, UniProt P00533); assay: MDS Panlabs screen: EGF; assay type: binding; conditions: Peptides
Method: as §1

DA transporter = DA transporter (Homo sapiens, UniProt Q01959); assay: MDS Panlabs screen: DA transporter; assay type: binding; conditions: Catecholamines
Method: as §1

muscarinic non-selective = assay: MDS Panlabs screen: muscarinic non-selective; assay type: binding; conditions: Acetylcholine
Method: as §1

MAO A = MAO A (Homo sapiens, UniProt P21397); assay: MDS Panlabs screen: MAO A; assay type: biochemical; conditions: Catecholamines
Method: as §1

adrenergic β = assay: MDS Panlabs screen: adrenergic β; assay type: binding; conditions: Catecholamines
Method: as §1

[1] = Weight gain over chronic treatment; assay type: in vivo, rat; conditions: rats, chronic 0.5 mg/kg daily orally (FIG. 12)
VIP1 = VIP1 (Homo sapiens, UniProt P32241); assay: MDS Panlabs screen: VIP1; assay type: binding; conditions: Peptides
Method: as §1

tachykinin NK3 = tachykinin NK3 (Homo sapiens, UniProt P29371); assay: MDS Panlabs screen: tachykinin NK3; assay type: binding; conditions: Peptides
Method: as §1

tachykinin NK1 = tachykinin NK1 (Homo sapiens, UniProt P25103); assay: MDS Panlabs screen: tachykinin NK1; assay type: binding; conditions: Peptides
Method: as §1

GABAA, BZP = assay: MDS Panlabs screen: GABAA, BZP; assay type: binding; conditions: Gabaergic
Method: as §1

[2] = cited from earlier work
tachykinin NK2 = tachykinin NK2 (Homo sapiens, UniProt P21452); assay: MDS Panlabs screen: tachykinin NK2; assay type: binding; conditions: Peptides
Method: as §1

nicototinic = assay: MDS Panlabs screen: nicotinic; assay type: binding; conditions: Acetylcholine
Method: as §1

adrenergic α2 = assay: MDS Panlabs screen: adrenergic α2; assay type: binding; conditions: Catecholamines
Method: as §1

COMT = COMT (Homo sapiens, UniProt P21964); assay: MDS Panlabs screen: COMT; assay type: biochemical; conditions: Catecholamines
Method: as §1

COX-1 = COX-1 (Homo sapiens, UniProt P23219); assay: MDS Panlabs screen: cyclooxygenase COX-1; assay type: biochemical
Method: as §1

domaine D1 = domaine D1 (Homo sapiens, UniProt P21728); assay: MDS Panlabs screen: D1; assay type: binding; conditions: Catecholamines
Method: as §1

somatostatin = assay: MDS Panlabs screen: somatostatin; assay type: binding; conditions: Peptides
Method: as §1

serotonin transporter = serotonin transporter (Homo sapiens, UniProt P31645); assay: MDS Panlabs screen: serotonin transporter; assay type: binding; conditions: Serotonin (5-HT)
Method: as §1

cannabinoid CB2 = cannabinoid CB2 (Homo sapiens, UniProt P34972); assay: MDS Panlabs screen: cannabinoid CB2; assay type: binding; conditions: Peptides
Method: as §1

5-HT1A = 5-HT1A (Homo sapiens, UniProt P08908); assay: MDS Panlabs screen: 5-HT1A; assay type: binding; conditions: Serotonin (5-HT)
Method: as §1

5-HT3 = 5-HT3 (Homo sapiens, UniProt P46098); assay: MDS Panlabs screen: 5-HT3; assay type: binding; conditions: Serotonin (5-HT)
Method: as §1

GABA C1-channel = assay: MDS Panlabs screen: GABA channel; assay type: binding; conditions: Gabaergic
Method: as §1

Sigma non-selective = assay: MDS Panlabs screen: Sigma non-selective; assay type: binding
Method: as §1

[3] = general description of the substance; cited from earlier work
Glutamate non-selective = assay: MDS Panlabs screen: Glutamate non-selective; assay type: binding; conditions: Gabaergic
Method: as §1

5-HT1 = assay: MDS Panlabs screen: 5-HT1; assay type: binding; conditions: Serotonin (5-HT)
Method: as §1

galanin GALR2 = galanin GALR2 (Homo sapiens, UniProt O43603); assay: MDS Panlabs screen: galanin GALR2; assay type: binding; conditions: Peptides
Method: as §1

Histamine H3 = Histamine H3 (Homo sapiens, UniProt Q9Y5N1); assay: MDS Panlabs screen: Histamine H3; assay type: binding
Method: as §1

NE transporter = NE transporter (Homo sapiens, UniProt P23975); assay: MDS Panlabs screen: NE transporter; assay type: binding; conditions: Catecholamines
Method: as §1

galanin GalR1 = galanin GalR1 (Homo sapiens, UniProt P47211); assay: MDS Panlabs screen: galanin GalR1; assay type: binding; conditions: Peptides
Method: as §1

interleukin IL-1α = assay: MDS Panlabs screen: interleukin IL-1α; assay type: binding; conditions: Peptides
Method: as §1

neuropeptide Y1 = neuropeptide Y1 (Homo sapiens, UniProt P25929); assay: MDS Panlabs screen: neuropeptide Y1; assay type: binding; conditions: Peptides
Method: as §1

domaine D2 = domaine D2 (Homo sapiens, UniProt P14416); assay: MDS Panlabs screen: D2; assay type: binding; conditions: Catecholamines
Method: as §1

[4] = Elevated plus maze, betulinic acid vs structurally related compounds (Example 11); assay type: in vivo; conditions: 0.5 mg/kg (FIG. 7)
From the text: This example compares the anxiolytic activity of betulinic acid and some other structurally related compounds. Results are illustrated in FIG. 7.

GABAA, agonist site = assay: MDS Panlabs screen: GABAA, agonist site; assay type: binding; conditions: Gabaergic
Method: as §1

EGF, sequence (P00533 25-1210): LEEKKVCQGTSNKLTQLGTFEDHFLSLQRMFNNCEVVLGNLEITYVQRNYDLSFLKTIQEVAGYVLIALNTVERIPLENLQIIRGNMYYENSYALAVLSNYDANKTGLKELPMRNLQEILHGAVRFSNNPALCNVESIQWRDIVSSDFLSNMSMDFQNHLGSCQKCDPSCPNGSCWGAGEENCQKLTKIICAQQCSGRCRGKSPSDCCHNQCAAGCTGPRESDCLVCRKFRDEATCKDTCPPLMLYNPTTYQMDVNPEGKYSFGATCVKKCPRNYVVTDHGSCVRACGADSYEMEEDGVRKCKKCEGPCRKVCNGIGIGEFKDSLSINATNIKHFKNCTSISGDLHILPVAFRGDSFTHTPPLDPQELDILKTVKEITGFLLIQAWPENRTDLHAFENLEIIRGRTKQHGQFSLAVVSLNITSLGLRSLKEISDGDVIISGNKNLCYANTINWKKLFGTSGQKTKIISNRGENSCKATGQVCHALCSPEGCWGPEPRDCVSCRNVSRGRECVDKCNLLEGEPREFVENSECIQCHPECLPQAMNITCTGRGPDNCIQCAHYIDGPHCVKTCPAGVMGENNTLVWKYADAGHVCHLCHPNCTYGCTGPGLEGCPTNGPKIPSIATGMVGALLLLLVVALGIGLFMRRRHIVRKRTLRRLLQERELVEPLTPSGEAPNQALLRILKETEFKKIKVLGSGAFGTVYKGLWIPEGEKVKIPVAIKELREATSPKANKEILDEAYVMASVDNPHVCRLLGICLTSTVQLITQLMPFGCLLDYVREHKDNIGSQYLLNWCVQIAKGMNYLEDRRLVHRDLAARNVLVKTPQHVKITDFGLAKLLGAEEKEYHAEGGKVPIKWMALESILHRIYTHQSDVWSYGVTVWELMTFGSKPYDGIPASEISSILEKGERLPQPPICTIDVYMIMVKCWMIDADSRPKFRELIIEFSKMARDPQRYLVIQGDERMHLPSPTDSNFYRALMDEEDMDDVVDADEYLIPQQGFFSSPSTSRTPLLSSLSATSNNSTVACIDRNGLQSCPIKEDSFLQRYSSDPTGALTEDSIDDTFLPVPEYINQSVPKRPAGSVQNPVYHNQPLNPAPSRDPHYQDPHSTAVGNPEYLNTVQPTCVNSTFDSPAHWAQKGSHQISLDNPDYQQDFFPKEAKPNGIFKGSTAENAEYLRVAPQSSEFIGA
tachykinin NK2, sequence (P21452 whole entry): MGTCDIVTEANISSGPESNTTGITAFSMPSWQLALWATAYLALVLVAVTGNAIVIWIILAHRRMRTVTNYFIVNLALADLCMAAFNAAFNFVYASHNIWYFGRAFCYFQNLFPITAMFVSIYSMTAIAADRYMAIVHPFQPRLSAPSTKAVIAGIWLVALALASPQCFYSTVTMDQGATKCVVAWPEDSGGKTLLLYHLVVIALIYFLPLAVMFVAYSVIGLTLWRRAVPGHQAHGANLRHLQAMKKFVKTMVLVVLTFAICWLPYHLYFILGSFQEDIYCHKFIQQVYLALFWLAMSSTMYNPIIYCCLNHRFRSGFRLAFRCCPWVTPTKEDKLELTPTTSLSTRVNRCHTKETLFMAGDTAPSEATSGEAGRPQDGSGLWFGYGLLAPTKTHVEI
NE transporter, sequence (P23975 whole entry): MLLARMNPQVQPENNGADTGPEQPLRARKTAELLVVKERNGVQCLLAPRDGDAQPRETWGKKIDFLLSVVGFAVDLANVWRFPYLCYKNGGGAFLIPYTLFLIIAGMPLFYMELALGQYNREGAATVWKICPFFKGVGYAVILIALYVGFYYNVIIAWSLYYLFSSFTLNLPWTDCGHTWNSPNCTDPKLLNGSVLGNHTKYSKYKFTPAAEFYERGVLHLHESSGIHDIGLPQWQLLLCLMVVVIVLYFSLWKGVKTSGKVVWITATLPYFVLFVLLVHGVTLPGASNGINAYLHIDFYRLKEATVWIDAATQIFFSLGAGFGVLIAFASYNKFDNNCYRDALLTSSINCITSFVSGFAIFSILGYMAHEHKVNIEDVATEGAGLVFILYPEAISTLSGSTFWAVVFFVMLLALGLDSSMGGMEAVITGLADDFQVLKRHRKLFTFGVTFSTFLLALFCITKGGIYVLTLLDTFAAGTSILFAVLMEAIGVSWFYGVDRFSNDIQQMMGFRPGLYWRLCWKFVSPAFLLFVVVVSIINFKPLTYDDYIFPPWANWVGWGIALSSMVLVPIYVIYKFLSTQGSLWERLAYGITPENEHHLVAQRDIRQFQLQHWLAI
DA transporter, sequence (Q01959 whole entry, species assumed): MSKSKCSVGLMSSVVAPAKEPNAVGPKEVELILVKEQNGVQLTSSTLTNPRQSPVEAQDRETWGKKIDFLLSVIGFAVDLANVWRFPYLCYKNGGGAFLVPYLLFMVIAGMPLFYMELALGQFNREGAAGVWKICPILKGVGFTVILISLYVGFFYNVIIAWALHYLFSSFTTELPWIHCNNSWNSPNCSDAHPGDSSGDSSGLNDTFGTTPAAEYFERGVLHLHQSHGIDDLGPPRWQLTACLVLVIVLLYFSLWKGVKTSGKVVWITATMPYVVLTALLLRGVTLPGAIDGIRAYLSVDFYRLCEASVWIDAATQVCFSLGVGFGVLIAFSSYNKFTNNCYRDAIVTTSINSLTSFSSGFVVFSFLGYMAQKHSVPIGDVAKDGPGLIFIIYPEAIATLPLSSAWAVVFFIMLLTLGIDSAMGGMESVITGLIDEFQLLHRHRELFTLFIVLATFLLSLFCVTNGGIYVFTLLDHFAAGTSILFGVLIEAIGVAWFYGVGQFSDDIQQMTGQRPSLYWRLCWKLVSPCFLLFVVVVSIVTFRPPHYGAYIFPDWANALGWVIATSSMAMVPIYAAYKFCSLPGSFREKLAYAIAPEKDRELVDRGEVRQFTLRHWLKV
COMT, sequence (P21964 whole entry, species assumed): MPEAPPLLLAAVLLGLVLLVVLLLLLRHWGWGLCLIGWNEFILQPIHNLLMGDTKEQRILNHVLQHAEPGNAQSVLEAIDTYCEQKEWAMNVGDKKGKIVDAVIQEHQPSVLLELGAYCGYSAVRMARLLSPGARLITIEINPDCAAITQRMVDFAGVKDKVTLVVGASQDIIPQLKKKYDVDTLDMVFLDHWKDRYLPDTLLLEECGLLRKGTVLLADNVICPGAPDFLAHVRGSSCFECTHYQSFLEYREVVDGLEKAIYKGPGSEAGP
domaine D1, sequence (P21728 whole entry): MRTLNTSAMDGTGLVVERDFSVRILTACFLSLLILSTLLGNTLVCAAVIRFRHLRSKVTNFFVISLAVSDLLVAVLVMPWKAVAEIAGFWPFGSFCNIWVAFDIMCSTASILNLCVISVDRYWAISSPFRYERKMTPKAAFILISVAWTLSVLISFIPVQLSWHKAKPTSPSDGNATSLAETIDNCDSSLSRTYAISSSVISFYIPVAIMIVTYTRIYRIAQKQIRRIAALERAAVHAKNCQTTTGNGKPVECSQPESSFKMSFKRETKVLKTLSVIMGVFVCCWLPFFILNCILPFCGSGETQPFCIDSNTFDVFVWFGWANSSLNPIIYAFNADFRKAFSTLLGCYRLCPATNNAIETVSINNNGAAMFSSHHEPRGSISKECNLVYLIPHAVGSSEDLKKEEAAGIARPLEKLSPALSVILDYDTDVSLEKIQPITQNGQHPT
CCKA, sequence (P32238 whole entry): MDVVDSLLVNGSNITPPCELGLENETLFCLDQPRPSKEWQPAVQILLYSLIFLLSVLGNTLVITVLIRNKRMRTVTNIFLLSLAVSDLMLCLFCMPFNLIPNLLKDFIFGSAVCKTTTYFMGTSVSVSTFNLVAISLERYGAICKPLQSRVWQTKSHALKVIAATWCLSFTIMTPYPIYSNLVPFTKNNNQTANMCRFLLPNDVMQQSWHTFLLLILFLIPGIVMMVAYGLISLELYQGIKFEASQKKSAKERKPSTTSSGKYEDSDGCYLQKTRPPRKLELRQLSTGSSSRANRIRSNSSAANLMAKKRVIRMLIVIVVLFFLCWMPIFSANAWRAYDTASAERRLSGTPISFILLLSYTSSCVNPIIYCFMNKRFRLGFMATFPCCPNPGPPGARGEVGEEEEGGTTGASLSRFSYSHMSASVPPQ
Histamine H3, sequence (Q9Y5N1 whole entry): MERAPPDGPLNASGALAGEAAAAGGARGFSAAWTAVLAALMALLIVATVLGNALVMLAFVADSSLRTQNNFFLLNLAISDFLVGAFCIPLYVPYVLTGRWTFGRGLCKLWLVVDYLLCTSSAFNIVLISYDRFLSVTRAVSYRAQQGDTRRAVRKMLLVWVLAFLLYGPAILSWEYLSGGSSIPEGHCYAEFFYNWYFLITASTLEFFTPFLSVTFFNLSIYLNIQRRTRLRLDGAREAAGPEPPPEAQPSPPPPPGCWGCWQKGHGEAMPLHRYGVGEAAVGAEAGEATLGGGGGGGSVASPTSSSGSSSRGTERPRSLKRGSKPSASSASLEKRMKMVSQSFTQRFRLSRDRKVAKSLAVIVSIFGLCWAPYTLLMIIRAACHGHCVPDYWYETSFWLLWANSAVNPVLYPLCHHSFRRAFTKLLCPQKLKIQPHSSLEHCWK
tachykinin NK1, sequence (P25103 whole entry): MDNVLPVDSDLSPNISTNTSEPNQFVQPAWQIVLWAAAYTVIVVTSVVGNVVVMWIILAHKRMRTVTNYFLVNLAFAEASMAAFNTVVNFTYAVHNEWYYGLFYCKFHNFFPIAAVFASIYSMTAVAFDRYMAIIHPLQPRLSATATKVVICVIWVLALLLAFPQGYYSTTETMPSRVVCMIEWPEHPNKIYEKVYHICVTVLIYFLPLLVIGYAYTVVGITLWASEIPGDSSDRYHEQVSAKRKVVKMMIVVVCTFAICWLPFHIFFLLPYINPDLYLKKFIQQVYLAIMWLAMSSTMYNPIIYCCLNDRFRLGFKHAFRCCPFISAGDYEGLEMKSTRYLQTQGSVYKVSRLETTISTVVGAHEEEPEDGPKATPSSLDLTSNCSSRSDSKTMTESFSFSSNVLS

What does the source list for `C=C(C)[C@@H]1CC[C@]2(C(=O)O)CC[C@]3(C)C(CC[C@@H]4[C@@]5(C)CC[C@H](O)C(C)(C)[C@@H]5CC[C@]43C)[C@@H]12` (some centres unmarked) [betulinic acid, Betulinic acid]?
affected by betulinic acid (CCKA): none of the following neurotransmitters or proteins were affected; affected by betulinic acid (EGF): none of the following neurotransmitters or proteins were affected; affected by betulinic acid (DA transporter): none of the following neurotransmitters or proteins were affected; affected by betulinic acid (muscarinic non-selective): none of the following neurotransmitters or proteins were affected; affected by betulinic acid (MAO A): none of the following neurotransmitters or proteins were affected; affected by betulinic acid (adrenergic β): none of the following neurotransmitters or proteins were affected; effect of chronic drug treatment on weight gain [1]: did not seem to affect weight gain in a significant manner; affected by betulinic acid (VIP1): none of the following neurotransmitters or proteins were affected; affected by betulinic acid (tachykinin NK3): none of the following neurotransmitters or proteins were affected; affected by betulinic acid (tachykinin NK1): none of the following neurotransmitters or proteins were affected; affected by betulinic acid (GABAA, BZP): none of the following neurotransmitters or proteins were affected; toxicity in a Hippocratic screen ([2]; 200 mg/kg): non-toxic; toxicity in a Hippocratic screen ([2]; 400 mg/kg): non-toxic; affected by betulinic acid (tachykinin NK2): none of the following neurotransmitters or proteins were affected; affected by betulinic acid (nicototinic): none of the following neurotransmitters or proteins were affected; affected by betulinic acid (adrenergic α2): none of the following neurotransmitters or proteins were affected; affected by betulinic acid (COMT): none of the following neurotransmitters or proteins were affected; affected by betulinic acid (COX-1): none of the following neurotransmitters or proteins were affected; affected by betulinic acid (domaine D1): none of the following neurotransmitters or proteins were affected; affected by betulinic acid (somatostatin): none of the following neurotransmitters or proteins were affected; affected by betulinic acid (serotonin transporter): none of the following neurotransmitters or proteins were affected; affected by betulinic acid (cannabinoid CB2): none of the following neurotransmitters or proteins were affected; affected by betulinic acid (5-HT1A): none of the following neurotransmitters or proteins were affected; affected by betulinic acid (5-HT3): none of the following neurotransmitters or proteins were affected; affected by betulinic acid (GABA C1-channel): none of the following neurotransmitters or proteins were affected; affected by betulinic acid (Sigma non-selective): none of the following neurotransmitters or proteins were affected; solubility (solvents) [3]: soluble in water, ethanol, ether, acetone, benzene, and chloroform; affected by betulinic acid (Glutamate non-selective): none of the following neurotransmitters or proteins were affected; affected by betulinic acid (5-HT1): none of the following neurotransmitters or proteins were affected; affected by betulinic acid (galanin GALR2): none of the following neurotransmitters or proteins were affected; affected by betulinic acid (Histamine H3): none of the following neurotransmitters or proteins were affected; affected by betulinic acid (NE transporter): none of the following neurotransmitters or proteins were affected; affected by betulinic acid (galanin GalR1): none of the following neurotransmitters or proteins were affected; affected by betulinic acid (interleukin IL-1α): none of the following neurotransmitters or proteins were affected; affected by betulinic acid (neuropeptide Y1): none of the following neurotransmitters or proteins were affected; affected by betulinic acid (domaine D2): none of the following neurotransmitters or proteins were affected; proportion of time spent in the open arm of the elevated plus maze [4]: increased; affected by betulinic acid (GABAA, agonist site): none of the following neurotransmitters or proteins were affected
